Columns and labels:
[1] = biological target: specific antibody to 2'5'-oligo(A); test: Competitive binding radio-immune assay (inhibition of binding of [32P]-labelled 2'5'A tetramer pCp probe to antibody, nitrocellulose filter); conditions: 25 μl, 0°, 1 hr; [32P] 2'5'A tetramer pCp probe
Experimental: The titers of the antisera are determined from the reciprocal of the dilution which gives 50% retention of the radioactivity to a nitrocellulose filter. The antiserum dilution is incubated in 25 μl of 20 mM KOAc, 10 mM HEPES-KOH, pH 7.4, 1.5 mM Mg(OAc)2 containing 1 mg/ml bovine serum albumin (BSA) and 5-6000 cpm of [^32 P] terminally labelled 2'5'A tetramer pCp (Amersham International: specific activity, approximately 3000 Ci/mmole). After incubation at 0° for 1 hr, the mixtures are diluted with 3 ml of ice cold 90 mM KCl, 20 mM Tris-HCl, pH 7.6 and passed through 25 mm discs of nitrocellulose (Millipore, type HAWP, 0.45 μ) with a filtration apparatus. The filters are washed with a further 2 portions of the same buffer, and retained radioactivity counted by Cerenkov radiation in a scintillation counter.
In the simple radio-immune assay described in Example 2, the unknown is determined by dilution of the radioactivity bound from the constant amount of known radioactive probe. […] This inhibition is a measure of the affinity of the related compound for the antibody, and will also indicate to what extent such compounds might interfere with the assay, if present in the material being analysed. […] A collection of 2'5'-adenylates and related compounds were prepared as follows. The dimer, trimer, tetramer and pentamer were obtained from the DEAE-cellulose fractionation of example 1. The tetramer was partially digested with bacterial alkaline phosphatase and the products separated by high performance liquid chromatography on a Partisil SAX column (Whatman), with 10 mM potassium phosphate buffer, pH 6.8, 20% ethanol and a gradient from 10 to 500 mM KCl. Acetyl and succinyl derivatives of the tetramer were obtained by reaction with acetic and succinic anhydride, according to the method of Example 1. Other compounds were from commercial sources.

2'5'-oligo(A) synthetase [2] = conditions: source of value not given; read-out: Km of the enzyme; cited from earlier work
[3] = system: Friend mouse erythroleukemia cells (N46AP); test: 2'5'-oligo(A) levels in differentiating Friend erythroleukemia cells, clone N46AP; type: cell-based; conditions: 1.4% (v/v) DMSO
Experimental: (§1) This is an example for cells growing in culture, but is universally applicable to any biological material: cell cultures, organs, tissues, bodily fluids such as blood, urine, cerebrospinal fluids, milk or any other suitably available material. Cells in a petri dish are rapidly washed with buffered saline (this step is dispensed with in the case of bodily fluids), then enough ice cold 5% trichloracetic acid (TCA) to cover the layer of cells (3 ml for a 7 cm diameter petri dish) and the dish is kept on ice for 5 min. The TCA and detached cells are removed and centrifuged to remove the insoluble material, and the dish and pellet are re-extracted with a similar volume of 5% TCA and the supernatants pooled. Alternatively, in the case of a cell suspension culture, the cells are pelleted by centrifugation at room temperature, the cells resuspended in a volume of buffered saline equal to the volume of the pellet, and approximately 10 volumes of 5% TCA are added. The insoluble material is removed by centrifugation and the pellet extracted with 1/2 the previous volume of 5% TCA. The supernatants are pooled. All operations with TCA are performed between 0° C. and 5° C. The pooled supernatants are freed of TCA by extraction with an equal volume of 30% (v/v) tri-N-octylamine in Freon 113 (Dow Chemicals). The upper aqueous phase is collected and the Freon phase re-extracted with 1/2 the preceeding volume of distilled water. Since biological material may contain ATP in the mM range, and it is desirable to measure 2'5'-oligo(A) in the nM range, it may be desirable to remove such 10^6 -fold excess of ATP, which might interfere with the assay. The ATP and other nucleotides which might interfere with the assay may then be removed chromatographically with DEAE cellulose (Whatman DE-52) equilibrated with 125 mM NH4 HCO3 (pH 7.8). The loading ratio is the same as for the preparative columns of example 1, but microcolumns of 200 μl are optimal for this analytical scale. The column is washed with 15 ml of the same buffer to remove the ATP and other unbound material. The 2'5'-oligo(A) is eluted with 2 ml of 0.5M NH4 HCO3, and the samples are lyophilized after addition of 1/10th volume of ethanol. The samples may be stored indefinitely in anhydrous form and re-dissolved with suitable volumes of solvent for the radio-immuno assay as described in example 3.
Friend mouse erythroleukemia cells can be induced to differentiate and become erythropoietic under the influence of a variety of reagents, especially dimethylsulfoxide. Such cells are also known to produce the enzyme 2'5'-oligo(A) synthetase. Before the method of the present invention, it was not possible to determine the 2'5'oligo(A) directly in these cells. The determination is described in this example. The Friend cells (clone FBU or N46AP) are grown in Dulbecco's modified Eagle's Medium containing 10% fetal calf serum, 2% (v/v) dimethylsulfoxide for FBU or 1.4% (v/v) DMSO for N46 AP and 1 mM glutamine. The cells are diluted with the same medium daily to maintain a density of 5.10^5 cells per ml. At various times, 30 ml cultures are collected and processed as described in the preceeding example. The lyophilized material is dissolved in the buffer corresponding to the reaction mixture for the assay, as in example 2, but containing 0.1 mg/ml of bovine serum albumin. The 2'5'-oligo(A) content is determined from the reduction of the binding of the [^32 P] labelled probe as in example 2 and 3.

[4] = system: Friend mouse erythroleukemia cells (FBU); test: 2'5'-oligo(A) levels in differentiating Friend erythroleukemia cells, clone FBU; type: cell-based; conditions: 2% (v/v) DMSO
Experimental: as §1, with “The ATP and other nucleotides which might interfere with the assay may then be removed chromatographically with DEAE cellulose (Whatman DE-52) equilibrated with 125 mM NH4 HCO3 (pH 7.8). The loading ratio is the same as for the preparative columns of example 1, but microcolumns of 200 μl are optimal for this analytical scale. The column is washed with 15 ml of the same buffer to remove the ATP and other unbound material. The 2'5'-oligo(A) is eluted with 2 ml of 0.5M NH4 HCO3, and the samples are lyophilized after addition of 1/10th volume of ethanol. The samples may be stored indefinitely in anhydrous form and re-dissolved with suitable volumes of solvent for the radio-immuno assay as described in example 3.” left out
Friend mouse erythroleukemia cells can be induced to differentiate and become erythropoietic under the influence of a variety of reagents, especially dimethylsulfoxide. […] The 2'5'-oligo(A) content is determined from the reduction of the binding of the [^32 P] labelled probe as in example 2 and 3.

2'5'-oligo(A) synthetase [5] = test: 2'5'-oligo(A) synthetase in 3T3 cells, radio-immune assay of reaction product; type: cell-based, Swiss mouse; conditions: 3T3 cells treated overnight; 10 μM prostaglandin F2α or 100 u/ml interferon; none 50, background 0
Description: (§2) Because of the extremely efficient reaction condition of cell-free systems, it is possible to assay low levels of 2'5'-oligo(A) synthetase. However, it is sometimes desirable to measure low levels from extremely small amounts of precious starting material. By coupling the extremely sensitive measurement of 2'5'-oligo(A) according to the methods of the present invention, with the enzymatic assay for 2'5'-oligo(A) polymerase, the enzyme can be determined with 10^5 -fold higher sensitivity than was previously possible. In the example, Swiss mouse 3T3 fibroblast cells are stimulated into a cell cycle by a variety of hormones and factors (for literature on this subject see the article "Criteria for the establishment of the biological significance of ribosomal protein phosphorylation" in Current Topics in Cellular Regulation, volume 21, 1982, pages 89-99, by J. Gordon, P. J. Nielsen, K. L. Manchester, H. Towbin, L. Jimenez de Asua and G. Thomas). […] One portion (198 μl) is analysed for conversion of the ATP to 2'5'-oligo(A) from the retention of radioactivity on an analytical DEAE cellulose column (see example 4). The other portion (2 μl) is diluted in the range 250 to 10,000-fold and the 2'5'-oligo(A) determined by the radioimmune assay (see example 3).

2'5'-oligo(A) synthetase [6] = test: 2'5'-oligo(A) synthetase in 3T3 cells, conventional assay ([3H]-ATP to [3H]-2'5'-oligo(A)); type: cell-based, Swiss mouse; conditions: 3T3 cells treated overnight; 10 μM prostaglandin F2α or 100 u/ml interferon; none 556, background (197)
Description: as §2

5'-(phospho)3 (adenylyl 2'-5')2 adenosine [pppA(2'p5'A)2]
amount giving 50% inhibition of the maximal binding of the [^32 P]-labelled probe [1]: 2.5 fmol

Nc1ncnc2c1ncn2[C@@H]1O[C@H](COP(=O)(O)OP(=O)(O)O)[C@@H](O)[C@H]1O [ADP]
amount giving 50% inhibition of the maximal binding of the [^32 P]-labelled probe [1]: > 3,000,000 fmoles

Nc1ncnc2c1ncn2[C@@H]1O[C@H](COP(=O)(O)O)[C@@H](O)[C@H]1O [AMP]
amount giving 50% inhibition of the maximal binding of the [^32 P]-labelled probe [1]: > 3,000,000 fmoles

Nc1ncnc2c1ncn2[C@@H]1O[C@H](COP(=O)(O)OP(=O)(O)OP(=O)(O)O)[C@@H](O)[C@H]1O [ATP]
Km (2'5'-oligo(A) synthetase [2]): ~1000 µM
amount giving 50% inhibition of the maximal binding of the [^32 P]-labelled probe [1]: > 3,000,000 fmoles

Nc1ccn([C@@H]2O[C@H](COP(=O)(O)OP(=O)(O)OP(=O)(O)O)[C@@H](O)[C@H]2O)c(=O)n1 [CTP]
amount giving 50% inhibition of the maximal binding of the [^32 P]-labelled probe [1]: > 3,000,000 fmoles

C[S+](C)[O-] [DMSO, dimethylsulfoxide]
2'5'-oligo(A) ([3]; day 1 post-DMSO (day 0: 7.5)): 7.8 fmoles/10^6 cells
2'5'-oligo(A) ([3]; day 2 post-DMSO): 4.3 fmoles/10^6 cells
2'5'-oligo(A) ([3]; day 3 post-DMSO): 17.5 fmoles/10^6 cells
2'5'-oligo(A) ([3]; day 5 post-DMSO): 63 fmoles/10^6 cells
2'5'-oligo(A) ([3]; day 6 post-DMSO): 53 fmoles/10^6 cells
2'5'-oligo(A) ([4]; day 1 post-DMSO (day 0: 2.6)): 28 fmoles/10^6 cells
2'5'-oligo(A) ([4]; day 2 post-DMSO): 28 fmoles/10^6 cells
2'5'-oligo(A) ([4]; day 4 post-DMSO): 20 fmoles/10^6 cells

Nc1nc2c(ncn2[C@@H]2O[C@H](COP(=O)(O)OP(=O)(O)OP(=O)(O)O)[C@@H](O)[C@H]2O)c(=O)[nH]1 [GTP]
amount giving 50% inhibition of the maximal binding of the [^32 P]-labelled probe [1]: > 3,000,000 fmoles

NC(=O)C1=CN([C@@H]2O[C@H](COP(=O)(O)OP(=O)(O)OC[C@H]3O[C@@H](n4cnc5c(N)ncnc54)[C@H](O)[C@@H]3O)[C@@H](O)[C@H]2O)C=CC1 [NADH]
amount giving 50% inhibition of the maximal binding of the [^32 P]-labelled probe [1]: > 3,000,000 fmoles

O=c1ccn([C@@H]2O[C@H](COP(=O)(O)OP(=O)(O)OP(=O)(O)O)[C@@H](O)[C@H]2O)c(=O)[nH]1 [UTP]
amount giving 50% inhibition of the maximal binding of the [^32 P]-labelled probe [1]: > 3,000,000 fmoles

Nc1ccn([C@@H]2O[C@H](COP(=O)(O)O)[C@@H](OP(=O)(O)O)[C@H]2O)c(=O)n1 [pCp]
amount giving 50% inhibition of the maximal binding of the [^32 P]-labelled probe [1]: > 3,000,000 fmoles

CCCCC[C@H](O)/C=C/[C@@H]1[C@@H](C/C=C\CCCC(=O)O)[C@@H](O)C[C@H]1O [prostaglandin F2α]
Radio-immune assay for 2'5'-oligo(A) (2'5'-oligo(A) synthetase [5]): 100 pmoles/assay
[^3 H]-ATP→[^3 H]-2'5'-oligo(A) (2'5'-oligo(A) synthetase [6]): 632 cpm/assay

pA(2'p5'A)3
amount giving 50% inhibition of the maximal binding of the [^32 P]-labelled probe [1]: 25 fmol
